# Data from patent US20240400564A1 (Syndax Pharmaceuticals, Inc, priority 2021, published 2024).
# How the values were obtained:
# [1] = target: T1, human Menin and N-terminal portion of human MLL (amino acids 4-43) (Homo sapiens, UniProt O00255); experiment: Menin-MLL competition assay (HTRF); assay type: binding; conditions: 1 hr incubation
# T1 construct: H-FL-Menin diluted to 4 nM in assay buffer
# T1 sequence (O00255 1-610): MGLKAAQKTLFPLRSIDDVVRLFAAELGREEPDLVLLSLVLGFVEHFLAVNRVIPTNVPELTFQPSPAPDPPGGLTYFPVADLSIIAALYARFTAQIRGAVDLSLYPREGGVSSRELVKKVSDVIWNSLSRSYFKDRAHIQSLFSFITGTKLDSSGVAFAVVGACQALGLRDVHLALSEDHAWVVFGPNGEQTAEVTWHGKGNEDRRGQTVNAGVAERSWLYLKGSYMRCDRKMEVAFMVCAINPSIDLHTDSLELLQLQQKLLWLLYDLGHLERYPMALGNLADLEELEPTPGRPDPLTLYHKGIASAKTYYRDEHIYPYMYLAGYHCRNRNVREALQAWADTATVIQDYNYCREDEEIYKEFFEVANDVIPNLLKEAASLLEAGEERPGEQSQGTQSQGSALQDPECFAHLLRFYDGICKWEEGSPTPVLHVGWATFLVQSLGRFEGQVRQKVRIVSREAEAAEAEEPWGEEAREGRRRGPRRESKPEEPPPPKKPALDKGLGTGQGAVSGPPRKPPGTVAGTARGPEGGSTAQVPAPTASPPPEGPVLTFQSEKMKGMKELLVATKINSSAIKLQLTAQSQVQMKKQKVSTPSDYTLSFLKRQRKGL
# Procedure, shortened: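 HTRF competition: 1 nM His-tagged full-length Menin with 2 nM Tb-anti-His6 and 1 nM FITC-MLL(4-43), 1 h at room temperature in Tris pH 7.4 buffer with DTT, BSA, Triton X-100; 3.16-fold compound series, 2% DMSO. Ratio 520/485 normalized to DMSO and 1 μM reference-compound controls for IC50.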
# Menin-MLL = target: T2, Menin-MLL (Homo sapiens, UniProt O00255); experiment: Determination of binding constants to Menin-MLL (HTRF, EC50 and Ki); conditions: 0.25 nM H-FL-Menin, 3.2 nM FITC-MLL-4-43, 24 hr incubation
# T2 sequence (O00255 1-610): T1 sequence (O00255 1-610)
# [2] = tested on: MLLr leukemia cell line MV4-11; experiment: Cell proliferation assay MV4;11 (CellTiter-Glo, 72 hours); assay type: cell-based; conditions: Homo sapiens; MV4-11 cells, 72 hours, CellTiter-Glo; read-out: MV4; 11 IC50
# Procedure, shortened: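 Cells in IMDM/10% FBS, seeded from a 15,000 cells/ml suspension, were exposed for 72 h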
# hERG = hERG (Homo sapiens, UniProt Q12809); experiment: Patch clamp assay (hERG tail currents, whole-cell)
# hERG, sequence (Q12809 whole entry): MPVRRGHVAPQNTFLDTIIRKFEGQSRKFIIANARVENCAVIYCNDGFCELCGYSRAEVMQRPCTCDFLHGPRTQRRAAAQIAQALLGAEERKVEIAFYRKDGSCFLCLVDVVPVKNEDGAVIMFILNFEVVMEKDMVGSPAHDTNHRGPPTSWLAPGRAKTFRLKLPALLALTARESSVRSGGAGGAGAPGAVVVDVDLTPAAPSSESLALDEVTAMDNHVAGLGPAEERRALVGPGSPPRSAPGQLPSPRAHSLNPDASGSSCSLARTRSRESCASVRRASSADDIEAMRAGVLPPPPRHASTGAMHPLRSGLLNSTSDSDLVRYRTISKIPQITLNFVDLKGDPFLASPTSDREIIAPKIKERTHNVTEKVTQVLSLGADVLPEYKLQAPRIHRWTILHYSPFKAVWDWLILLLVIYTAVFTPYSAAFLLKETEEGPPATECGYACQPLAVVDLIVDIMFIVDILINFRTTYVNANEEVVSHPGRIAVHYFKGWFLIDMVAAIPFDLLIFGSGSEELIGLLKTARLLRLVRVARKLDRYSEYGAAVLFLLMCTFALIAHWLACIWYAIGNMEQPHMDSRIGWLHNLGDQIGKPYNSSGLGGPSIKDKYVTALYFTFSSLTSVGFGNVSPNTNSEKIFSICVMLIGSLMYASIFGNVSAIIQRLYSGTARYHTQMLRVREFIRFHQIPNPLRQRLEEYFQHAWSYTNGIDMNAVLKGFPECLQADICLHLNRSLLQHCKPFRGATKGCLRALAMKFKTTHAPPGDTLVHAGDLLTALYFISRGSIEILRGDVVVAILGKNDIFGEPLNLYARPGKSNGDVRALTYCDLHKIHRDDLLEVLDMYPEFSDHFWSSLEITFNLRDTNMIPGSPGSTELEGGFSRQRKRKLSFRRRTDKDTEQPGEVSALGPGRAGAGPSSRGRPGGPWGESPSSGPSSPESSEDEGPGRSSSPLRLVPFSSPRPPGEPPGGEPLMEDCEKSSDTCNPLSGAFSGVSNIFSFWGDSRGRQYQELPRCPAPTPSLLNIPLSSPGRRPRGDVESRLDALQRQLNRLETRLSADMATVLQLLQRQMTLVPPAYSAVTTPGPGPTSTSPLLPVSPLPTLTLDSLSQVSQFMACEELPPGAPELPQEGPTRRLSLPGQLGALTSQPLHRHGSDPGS
# Method: The 35 mm culture dishes upon which cells were seeded at a density allowing single cells to be recorded were placed on the dish holder of the microscope and continuously perfused (at approximately 1 mL/min) with the bath solution described in section 4.6. All solutions applied to cells including the pipette solution were maintained at room temperature (19° C. to 30° C.). After formation of a Gigaohm seal between the patch electrodes and individual hERG stably transfected HEK 293 cells (pipette resistance range: 2.0 MS to 7.0 MS; seal resistance range: >1GΩ) the cell membrane across the pipette tip was ruptured to assure electrical access to the cell interior (whole-cell patch-configuration). In case the quality of the seal was poor, the process of seal formation was repeated with a different cell and a new pipette. As soon as a stable seal could be established, hERG outward tail currents were measured upon depolarization of the cell membrane to +20 mV for 2 s (activation of channels) from a holding potential of −80 mV and upon subsequent repolarization to −40 mV for 3 s. This voltage protocol (as shown below) was run at least 10 times at intervals of 10 s. If current density was judged to be too low for measurement, another cell was recorded.
# During wash-in of the test item the voltage protocol indicated above was run continuously again at 10 s intervals until the steady-state level of block was reached.
# The IC50 was determined by fitting the dose response curve with a 2-parameter logistic function (amax=100%).
Compound,IC50 [1] [nM],Menin-MLL Ki HTRF Assay: EC50 (nM) (Menin-MLL),IC50 [2] [nM],Ki (Menin-MLL) [nM],hERG % Remaining (hERG; 10 μM compound),hERG % Remaining (hERG; 30 μM compound),IC50 (hERG) [nM],hERG % Remaining (hERG; 100 μM compound)
"CCN(C(=O)c1cc(F)ccc1Oc1cncnc1N1CC2(CCN(C[C@@H]3CC[C@@H](NC(=O)NCC(F)F)CO3)CC2)C1)C(C)C [Example 41, 2-((4-(7-(((2S,5R)-5-(3-(2,2-Difluoroethyl)ureido)tetrahydro-2H-pyran-2-yl)methyl)-2,7-diazaspiro[3.5]nonan-2-yl)pyrimidin-5-yl)oxy)-N-ethyl-5-fluoro-N-isopropylbenzamide]",< 100,++ (250 nM and <100 nM),,,,,,
"CC(C)N(C(=O)c1cc(F)ccc1Oc1cncnc1N1CC2(CCN(C[C@@H]3CC[C@@H](NS(=O)(=O)N(C)C)CO3)CC2)C1)[C@H]1CCOC1 [Example 177, 2-((4-(7-(((2S,5R)-5-((N,N-Dimethylsulfamoyl)amino)tetrahydro-2H-pyran-2-yl)methyl)-2,7-diazaspiro[3.5]nonan-2-yl)pyrimidin-5-yl)oxy)-5-fluoro-N-isopropyl-N-((S)-tetrahydrofuran-3-yl)benzamide]",,,< 100,< 1,+++ (≥66%),+++ (≥66%),,
"CCCNC(=O)N[C@@H]1CC[C@@H](CN2CCC3(CC2)CN(c2ncncc2Oc2ccc(F)cc2C(=O)N(CC)C(C)C)C3)OC1 [Example 38, N-Ethyl-5-fluoro-N-isopropyl-2-((4-(7-(((2S,5R)-5-(3-propylureido)tetrahydro-2H-pyran-2-yl)methyl)-2,7-diazaspiro[3.5]nonan-2-yl)pyrimidin-5-yl)oxy)benzamide]",< 100,++ (250 nM and <100 nM),,,,,,
"CCS(=O)(=O)N[C@@H]1CC[C@@H](CN2CCC3(CC2)CN(c2ncncc2Oc2ccc(F)cc2C(=O)N(C(C)C)[C@H]2C[C@H](C(F)F)C2)C3)OC1 [Example 246, N-((1r,3r)-3-(Difluoromethyl)cyclobutyl)-2-((4-(7-(((2S,5R)-5-(ethylsulfonamido)tetrahydro-2H-pyran-2-yl)methyl)-2,7-diazaspiro[3.5]nonan-2-yl)pyrimidin-5-yl)oxy)-5-fluoro-N-isopropylbenzamide]",,,< 100,< 1,,,,
"CC(C)N(C(=O)c1cc(F)ccc1Oc1cncnc1N1CC2(CCN(C[C@@H]3CC[C@@H](NS(=O)(=O)C4CC4)CO3)CC2)C1)[C@H]1CCOC1 [Example 176, 2-((4-(7-(((2S,5R)-5-(Cyclopropanesulfonamido)tetrahydro-2H-pyran-2-yl)methyl)-2,7-diazaspiro[3.5]nonan-2-yl)pyrimidin-5-yl)oxy)-5-fluoro-N-isopropyl-N-((S)-tetrahydrofuran-3-yl)benzamide]",,,< 100,< 1,+++ (≥66%),+++ (≥66%),> 50000,+++ (≥66%)
"CCS(=O)(=O)N[C@@H]1CC[C@@H](CN2CCC3(CC2)CN(c2ncncc2Oc2ccc(F)cc2C(=O)N(C(C)C)[C@H]2C[C@H](F)C2)C3)OC1 [Example 243, 2-((4-(7-(((2S,5R)-5-(Ethylsulfonamido)tetrahydro-2H-pyran-2-yl)methyl)-2,7-diazaspiro[3.5]nonan-2-yl)pyrimidin-5-yl)oxy)-5-fluoro-N-((1r,3r)-3-fluorocyclobutyl)-N-isopropylbenzamide]",,,< 100,< 1,,,,
"CCS(=O)(=O)N[C@@H]1CC[C@@H](CN2CCC3(CC2)CN(c2ncncc2Oc2ccc(F)cc2C(=O)N(C(C)C)[C@H]2C[C@@H](F)C2)C3)OC1 [Example 244, 2-((4-(7-(((2S,5R)-5-(ethylsulfonamido)tetrahydro-2H-pyran-2-yl)methyl)-2,7-diazaspiro[3.5]nonan-2-yl)pyrimidin-5-yl)oxy)-5-fluoro-N-((1s,3s)-3-fluorocyclobutyl)-N-isopropylbenzamide]",,,< 100,< 1,+++ (≥66%),++ (233% and ≤66%),,
